Test results: patent US12091426B2, “Bifunctional degraders of hematopoietic progenitor kinase and therapeutic uses thereof” (Nurix Therapeutics, Inc., priority 2021, dated 2024)

Target: T1, HPK1 (Homo sapiens, UniProt Q92918)
T1 construct: A HiBiT tag was introduced by CRISPR on the N terminus of HPK1 in Jurkat cells; host or cells: Jurkat cells (ATCC TIB-152), monoclonal line with CRISPR knock-in of HiBiT at the endogenous HPK1 locus
Assay: HPK1 Cellular HiBit Degradation Assay
Format: cell-based
Conditions: HiBiT HPK1 Jurkat cells, 24 hrs; for DC50: concentration at which 50% of HPK1 was remaining, read-out: DC50 Category; for Dmax: Jurkat, read-out: Dmax Category
Outline: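 Jurkat cells with CRISPR knock-in N-terminal HiBiT-HPK1 were treated with CTMs (11-point, 3.16-fold, 10 uM to 0.1 nM final) for 24 hrs at 37° C. HiBiT lytic luminescence, with parental Jurkat as background and DMSO as 100%, gave % HPK1 remaining; four-parameter fit yielded DC50 and Dmax (100 minus lowest % remaining).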

[1] = maximum degradation vs DMSO vehicle control

T1 sequence (Q92918 whole entry): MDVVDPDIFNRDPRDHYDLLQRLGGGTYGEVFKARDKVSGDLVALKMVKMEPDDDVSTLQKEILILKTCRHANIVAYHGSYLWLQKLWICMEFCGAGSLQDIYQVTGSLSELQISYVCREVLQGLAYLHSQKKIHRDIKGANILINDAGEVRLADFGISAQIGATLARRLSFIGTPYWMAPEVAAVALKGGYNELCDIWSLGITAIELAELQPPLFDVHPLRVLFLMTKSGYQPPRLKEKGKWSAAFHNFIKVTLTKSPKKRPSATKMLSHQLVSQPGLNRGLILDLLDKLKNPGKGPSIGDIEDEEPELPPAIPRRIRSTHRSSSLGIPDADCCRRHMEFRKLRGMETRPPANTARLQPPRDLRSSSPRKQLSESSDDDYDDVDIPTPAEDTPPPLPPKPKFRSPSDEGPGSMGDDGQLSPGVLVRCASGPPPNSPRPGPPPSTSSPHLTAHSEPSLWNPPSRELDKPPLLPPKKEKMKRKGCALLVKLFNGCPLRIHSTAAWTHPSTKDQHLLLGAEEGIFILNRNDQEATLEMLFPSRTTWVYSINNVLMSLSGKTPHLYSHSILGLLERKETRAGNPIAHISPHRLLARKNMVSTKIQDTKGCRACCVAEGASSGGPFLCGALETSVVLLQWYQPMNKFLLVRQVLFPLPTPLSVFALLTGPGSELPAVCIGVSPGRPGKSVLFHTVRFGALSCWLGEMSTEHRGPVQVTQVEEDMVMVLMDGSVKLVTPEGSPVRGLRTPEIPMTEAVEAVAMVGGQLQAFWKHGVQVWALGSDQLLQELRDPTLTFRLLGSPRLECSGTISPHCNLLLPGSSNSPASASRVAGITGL

Work on `Cc1nc(N2CCC(C(=O)N3CCC(C)(C(=O)N4CCC5(CC4)C(=O)N([C@H]4C[C@@H](N6CCCCC6)C4)c4cc(-c6cc7ncn(C(C)C)c7c(Nc7ccccc7F)n6)ccc45)CC3)CC2)ccc1C1CCC(=O)NC1=O` (mixture of isomers) [Example 157, (3RS)-3-[6-(4-{4-[(6-{4-[(2-fluorophenyl)amino]-3-(propan-2-yl)-3H-imidazo[4,5-c]pyridin-6-yl}-2-oxo-1-[(1S,3S)-3-(piperidin-1-yl)cyclobutyl]-1,2-dihydrospiro[indole-3,4′-piperidin]-1′-yl)carbonyl]-4-methylpiperidine-1-carbonyl}piperidin-1-yl)-2-Methylpyridin-3-yl]piperidine-2,6-dione] yielded a DC50 of 100 to 500 nM and a Dmax [1] of 70 to 85%.
Work on `CC(C)n1cnc2cc(-c3ccc4c(c3)N([C@H]3C[C@@H](N5CCCCC5)C3)C(=O)C43CCN(C(=O)C4CCN(C(=O)C5CCN(c6ccc(C7CCC(=O)NC7=O)cc6)CC5)CC4)CC3)nc(NC3CC3)c21` (stereo partly drawn) [Example 66, 3-(4-(4-(4-(6-(4-(cyclopropylamino)-3-isopropyl-3H-imidazo[4,5-c]pyridin-6-yl)-2-oxo-1-((1S,3S)-3-(piperidin-1-yl)cyclobutyl)spiro[indoline-3,4′-piperidine]-1′-carbonyl)piperidine-1-carbonyl)piperidin-1-yl)phenyl)piperidine-2,6-dione] yielded a DC50 of less than 100 nM and a Dmax [1] of 70 to 85%.
`CC(C)n1cnc2cc(-c3ccc4c(c3)N([C@H]3C[C@@H](N5CCCCC5)C3)C(=O)C43CCN(C(=O)C4CCN(C(=O)C5CCN(c6ccc(N7CCC(=O)NC7=O)cn6)CC5)CC4)CC3)nc(NC3CC3)c21` [Example 79, 1-(6-{4-[4-({6-[4-(cyclopropylamino)-3-(propan-2-yl)-3H-imidazo[4,5-c]pyridin-6-yl]-2-oxo-1-[(1S,3S)-3-(piperidin-1-yl)cyclobutyl]-1,2-dihydrospiro[indole-3,4′-piperidin]-1′-yl}carbonyl)piperidine-1-carbonyl]piperidin-1-yl}pyridin-3-yl)-1,3-diazinane-2,4-dione] showed a DC50 of less than 100 nM and a Dmax [1] of 50 to 70%.
For `CC(C)n1cnc2cc(-c3ccc4c(c3)N([C@H]3C[C@@H](N5CCCCC5)C3)C(=O)C43CCN(C(=O)C4[C@@H]5C[C@H]4CN(C(=O)CC4CCN(c6ccc(C7CCC(=O)NC7=O)cn6)CC4)C5)CC3)nc(NC3CC3)c21` (stereo partly drawn) [Example 240, 3-(6-(4-(2-((1R,5S,6S)-6-(6-(4-(cyclopropylamino)-3-isopropyl-3H-imidazo[4,5-c]pyridin-6-yl)-2-oxo-1-((1S,3S)-3-(piperidin-1-yl)cyclobutyl)spiro[indoline-3,4′-piperidine]-1′-carbonyl)-3-azabicyclo[3.1.1]heptan-3-yl)-2-oxoethyl)piperidin-1-yl)pyridin-3-yl)piperidine-2,6-dione], the DC50 was less than 100 nM and the Dmax [1] was greater than 85%.
`CC(C)n1cnc2cc(-c3ccc4c(c3)N([C@H]3C[C@@H](N5CCCCC5)C3)C(=O)C43CCN(C(=O)C4(C)CCN(C(=O)C5CCN(c6ccc(C7CCC(=O)NC7=O)cc6)CC5)CC4)CC3)nc(Nc3ccncc3F)c21` (mixture of isomers) [Example 112, (3RS)-3-[4-(4-{4-[(6-{4-[(3-fluoropyridin-4-yl)amino]-3-(propan-2-yl)-3H-imidazo[4,5-c]pyridin-6-yl}-2-oxo-1-[(1S,3S)-3-(piperidin-1-yl)cyclobutyl]-1,2-dihydrospiro[indole-3,4′-piperidin]-1′-yl)carbonyl]-4-methylpiperidine-1-carbonyl}piperidin-1-yl)phenyl]piperidine-2,6-dione] showed a DC50 of less than 100 nM and a Dmax [1] of 70 to 85%.
Work on `CC(C)n1cnc2cc(-c3ccc4c(c3)N([C@H]3C[C@@H](N5CCCCC5)C3)C(=O)C43CCN(C(=O)C4CN(C(=O)C5CCN(c6ccc(C7CCC(=O)NC7=O)cc6)CC5)CC(F)(F)C4)CC3)nc(NC3CC3)c21` (mixture of isomers) [Example 268, (3RS)-3-(4-{4-[5-({6-[4-(cyclopropylamino)-3-(propan-2-yl)-3H-imidazo[4,5-c]pyridin-6-yl]-2-oxo-1-[(1S,3S)-3-(piperidin-1-yl)cyclobutyl]-1,2-dihydrospiro[indole-3,4′-piperidin]-1′-yl}carbonyl)-3,3-Difluoropiperidine-1-carbonyl]piperidin-1-yl}phenyl)piperidine-2,6-dione] yielded a DC50 of 100 to 500 nM and a Dmax [1] of 50 to 70%.
Compound `CC(C)Nc1nc(-c2ccc3c(c2)N([C@H]2C[C@@H](N4CCCCC4)C2)C(=O)C32CCN(C(=O)C3(C)CCN(C(=O)C4CCN(c5ccc(C6CCC(=O)NC6=O)cn5)CC4)CC3)CC2)cc2ncn(C(C)C)c12` (stereo partly shown) [Example 166] has a DC50 of less than 100 nM and a Dmax [1] greater than 85%.
Work on `CC(C)n1cnc2cc(-c3ccc4c(c3)N([C@H]3C[C@@H](N5C6CCC5COC6)C3)C(=O)C43CCN(C(=O)C4(C)CCN(C(=O)[C@H]5CC[C@H](Oc6ccc(C7CCC(=O)NC7=O)cc6)CC5)CC4)CC3)nc(NC3CC3)c21` (mixture of isomers) [Example 193, (3RS)-3-(4-{[(1R,4R)-4-[4-({6-[4-(cyclopropylamino)-3-(propan-2-yl)-3H-imidazo[4,5-c]pyridin-6-yl]-2-oxo-1-[(1S,3S)-3-{3-oxa-8-Azabicyclo[3.2.1]octan-8-yl}cyclobutyl]-1,2-dihydrospiro[indole-3,4′-piperidin]-1′-yl}carbonyl)-4-methylpiperidine-1-carbonyl]cyclohexyl]oxy}phenyl)piperidine-2,6-dione] yielded a DC50 of 100 to 500 nM and a Dmax [1] of 50 to 70%.
In the case of `CC(C)n1cnc2cc(-c3ccc4c(c3)N([C@H]3C[C@@H](N5CCCCC5)C3)C(=O)C43CCN(C(=O)[C@H]4CCN(C(=O)C5CCN(c6ccc(C7CCC(=O)NC7=O)cn6)CC5)C4)CC3)nc(NC3CC3)c21` (mixture of isomers) [Example 32, (3RS)-3-(6-{4-[(3S)-3-({6-[4-(cyclopropylamino)-3-(propan-2-yl)-3H-imidazo[4,5-c]pyridin-6-yl]-2-oxo-1-[(1S,3S)-3-(piperidin-1-yl)cyclobutyl]-1,2-dihydrospiro[indole-3,4′-piperidin]-1′-yl}carbonyl)pyrrolidine-1-carbonyl]piperidin-1-yl}pyridin-3-yl)piperidine-2,6-dione], the DC50 is reported as 100 to 500 nM and the Dmax [1] is reported as 50 to 70%.
In the case of `CC(C)n1cnc2cc(-c3ccc4c(c3)N([C@H]3C[C@@H](N5CCCCC5)C3)C(=O)C43CCN(C(=O)C4CCN(C(=O)C5CCN(c6ccc(C7CCC(=O)NC7=O)nc6)CC5)CC4)CC3)nc(NC3CC3)c21` (stereo partly drawn) [Example 84, 3-(5-{4-[4-({6-[4-(cyclopropylamino)-3-(propan-2-yl)-3H-imidazo[4,5-c]pyridin-6-yl]-2-Oxo-1-[(1S,3S)-3-(piperidin-1-yl)cyclobutyl]-1,2-dihydrospiro[indole-3,4′-piperidin]-1′-yl}carbonyl)piperidine-1-carbonyl]piperidin-1-yl}pyridin-2-yl)piperidine-2,6-dione], the DC50 is reported as 100 to 500 nM and the Dmax [1] is reported as 50 to 70%.
`CC(C)n1cnc2cc(-c3ccc4c(c3)N([C@H]3C[C@@H](N5CCCCC5)C3)C(=O)C43CCN(C(=O)[C@H]4CCN(C(=O)C5CCN(c6ccc(C7CCC(=O)NC7=O)cn6)CC5)C4)CC3)nc(Nc3ccncc3F)c21` (mixture of isomers) [Example 34, (3RS)-3-(6-{4-[(3S)-3-[(6-{4-[(3-fluoropyridin-4-yl)amino]-3-(propan-2-yl)-3H-imidazo[4,5-c]pyridin-6-yl}-2-oxo-1-[(1S,3S)-3-(piperidin-1-yl)cyclobutyl]-1,2-dihydrospiro[indole-3,4′-piperidin]-1′-yl)carbonyl]pyrrolidine-1-carbonyl]piperidin-1-yl}pyridin-3-yl)piperidine-2,6-dione] showed a DC50 of 100 to 500 nM and a Dmax [1] of 50 to 70%.
With `CC(C)n1cnc2cc(-c3ccc4c(c3)N(C3CC(N5CCCCC5)C3)C(=O)C43CCN(C(=O)[C@@H]4CCN(C(=O)C5CCN(c6ccc(C7CCC(=O)NC7=O)cn6)CC5)C4)CC3)nc(Nc3ccncc3F)c21` (mixture of isomers) [Example 25, (3RS)-3-(6-{4-[(3R)-3-[(6-{4-[(3-fluoropyridin-4-yl)amino]-3-(propan-2-yl)-3H-imidazo[4,5-c]pyridin-6-yl}-2-oxo-1-[(1S,3S)-3-(piperidin-1-yl)cyclobutyl]-1,2-dihydrospiro[indole-3,4′-piperidin]-1′-yl)carbonyl]pyrrolidine-1-carbonyl]piperidin-1-yl}pyridin-3-yl)piperidine-2,6-dione] the DC50 was less than 100 nM and the “Dmax Category” value [1] was “B (B: >70%-<85%)”.
Compound `CC(C)n1cnc2cc(-c3ccc4c(c3)N([C@H]3C[C@@H](N5CCCCC5)C3)C(=O)C43CCN(C(=O)C4CCN(C(=O)[C@H]5CC[C@H](C(=O)N6CCc7cc(C8CCC(=O)NC8=O)ccc7C6)CC5)CC4)CC3)nc(Nc3ccccc3F)c21` (stereo partly drawn) [Example 48, 3-(2-((1R,4R)-4-(4-(6-(4-((2-fluorophenyl)amino)-3-isopropyl-3H-imidazo[4,5-c]pyridin-6-yl)-2-oxo-1-((1S,3S)-3-(piperidin-1-yl)cyclobutyl)spiro[indoline-3,4′-piperidine]-1′-carbonyl)piperidine-1-carbonyl)cyclohexane-1-carbonyl)-1,2,3,4-tetrahydroisoquinolin-6-yl)piperidine-2,6-dione] has a DC50 of less than 100 nM and a Dmax [1] of 70 to 85%.
For `CC(C)n1cnc2cc(-c3ccc4c(c3)N([C@H]3C[C@@H](N5CCCCC5)C3)C(=O)C43CCN(C(=O)C4CCN(C(=O)C5CCN(c6ccc(C7CCC(=O)NC7=O)cn6)CC5)C5(CCC5)C4)CC3)nc(NC3CC3)c21` (mixture of isomers) [Example 270, (3RS)-3-(6-{4-[8-({6-[4-(cyclopropylamino)-3-(propan-2-yl)-3H-imidazo[4,5-c]pyridin-6-yl]-2-oxo-1-[(1S,3S)-3-(piperidin-1-yl)cyclobutyl]-1,2-dihydrospiro[indole-3,4′-piperidin]-1′-yl}carbonyl)-5-azaspiro[3.5]nonane-5-carbonyl]piperidin-1-yl}pyridin-3-yl)piperidine-2,6-dione], the DC50 was less than 100 nM and the Dmax [1] was 70 to 85%.
